# Test results reported in article PMC4750852, “Synergistic Malaria Parasite Killing by Two Types of Plasmodial Surface Anion Channel Inhibitors” (PLoS ONE, 2016).
# Read-outs that look alike come from different tables or passages of the source.
# Experiments:
# P. falciparum [1] = test: Parasite growth inhibition, SYBR Green I assay, 72 h; type: cell-based, Plasmodium falciparum; settings: for Improvement in growth IC50 in PGIM relative to standard medium: ratio of IC50 standard RPMI 1640-based medium to PGIM, present and prior studies [2]
# Description: Efficacy of inhibitors against in vitro parasite growth was evaluated with the SYBR Green I assay for parasite nucleic acid as described. […] These cultures were then lysed (20 mM Tris, 10 mM EDTA, 0.016% saponin, 1.6% Triton X-100, pH 7.5) and incubated for 45 min with SYBR Green I nucleic acid stain at a 5000-fold dilution (Invitrogen, Waltham, MA). The mean fluorescence of replicate wells (excitation, 485 nm; emission, 528 nm) was used to quantify parasite DNA content and growth after normalization to in-plate controls with and without 20 μM chloroquine (100 and 0% growth inhibition, respectively).
# [2] = tested on: plasmodial surface anion channel (PSAC), residual transport; test: Osmotic lysis kinetics, residual PhTMA+ transport in infected erythrocytes (with a primary component inhibitor present); type: cell-based, Plasmodium falciparum
# Description: (§1) Enriched cells were washed in HBS (150 mM NaCl, 20 mM Na-HEPES, 0.1 mg/mL BSA, pH 7.5) and used for continuous tracking of osmotic lysis in permeant solutes as described. PSAC-mediated uptake was initiated by resuspension of cells in osmotic lysis solutions containing 20 mM Na-HEPES, 0.1 mg/mL BSA with permeant solute or salt added at 280–290 mOsm; where present, inhibitors were added from concentrated stocks in DMSO. Osmotic swelling and lysis at 37°C was then kinetically tracked by recording the transmittance of 700 nm light through the 1 mL cell suspension (Beckman Coulter spectrophotometer, Indianapolis, IN). Regular manual resuspension was used to minimize the effects of cell settling. Solute permeability was calculated using locally developed script as described. The data are presented with normalization to inhibitor-free controls included in each experiment.
# [3] = tested on: plasmodial surface anion channel (PSAC), primary transport; test: Osmotic lysis kinetics, primary transport (sorbitol / alanine uptake) in infected erythrocytes; type: cell-based, Plasmodium falciparum
# Description: as §1
# P. falciparum [4] = test: Fixed-ratio combination growth inhibition, isobologram analysis; type: cell-based, Plasmodium falciparum; settings: combination of 0.82 μM cpd 1 and 0.35 μM PRT1-20
# Description: Efficacy of inhibitors against in vitro parasite growth was evaluated with the SYBR Green I assay for parasite nucleic acid as described. […] These cultures were then lysed (20 mM Tris, 10 mM EDTA, 0.016% saponin, 1.6% Triton X-100, pH 7.5) and incubated for 45 min with SYBR Green I nucleic acid stain at a 5000-fold dilution (Invitrogen, Waltham, MA). The mean fluorescence of replicate wells (excitation, 485 nm; emission, 528 nm) was used to quantify parasite DNA content and growth after normalization to in-plate controls with and without 20 μM chloroquine (100 and 0% growth inhibition, respectively). Growth inhibition resulting from combinations of PSAC inhibitors was similarly evaluated using fixed ratios of the two compounds [28]. For each experiment, […] of the two inhibitors (10:0, 9:1, …, 1:9, 0:10) were prepared based on the optimal concentrations of each in isolated growth inhibition dose responses. For each ratio, serial dilutions were used to generate dose responses and permit calculation of IC50 values by interpolation; in each experiment, matched dose responses were included for each compound in isolation. […] For each inhibitor combination, synergistic action was quantified using the ∑FIC50 (sum of fractional inhibitor concentrations producing 50% block); values of this parameter below 0.7 indicate strong synergistic action.
# [5] = tested on: P. knowlesi channel (PSAC); test: Osmotic lysis kinetics in rhesus erythrocytes infected with P. knowlesi; type: cell-based; settings: 3 μM inhibitor with 200 μM furosemide
# Description: as §1
# [6] = tested on: plasmodial surface anion channel (PSAC), residual transport; test: Osmotic lysis kinetics, residual proline transport with 200 μM furosemide; type: cell-based, Plasmodium falciparum; settings: added to 200 μM furosemide; maximal inhibition less than with PhTMA+
# Description: as §1, with “Transport measurements used synchronous trophozoite-stage infected erythrocytes enriched from P. falciparum cultures by Percoll/sorbitol separation to > 95% parasitemia. Enriched” for “Enriched”
smiles,measurement,setting,value
"Cc1ccc(C)c(N2CCN(S(=O)(=O)c3ccc(-c4ccc(=O)[nH]n4)s3)CC2)c1 [ISG-21, reference compound]",IC50,P. falciparum [1]; PGIM,17.3 ± 1 nM
same,IC50,P. falciparum [1]; PGIM with isoleucine increased to 34 μM,1250 ± 100 nM
same,Improvement in growth IC50 in PGIM relative to standard medium,P. falciparum [1],significantly improved activity in PGIM
same,Fold less effective against residual PhTMA+ transport than against sorbitol uptake,"[2]; comparison of K0.5 values, PhTMA+ + 200 μM furosemide vs sorbitol",up to 3000 fold
same,Effect on sorbitol uptake at selected concentration,"[3]; 100 nM ISG-21, 2 μM TP-52, residual uptake of PhTMA+ remains",abolish sorbitol uptake
CCCCOc1ccc(C(=O)Nc2ccc(-c3nn4c(C)nnc4s3)cc2)cc1 [PRT1-20],"Parasite growth inhibition, single compound","P. falciparum [1]; applied individually, standard RPMI-1640 based media",low micromolar concentrations
same,Activity against residual PhTMA+ transport compared to PRT-1,"[2]; PhTMA+ with 200 μM furosemide, dose response",improved activity
same,Concentration in the combination as share of the compound's single drug IC50,P. falciparum [4],approximately 10%
same,Action against the primary transport component compared to PRT-1,"[3]; sorbitol without furosemide, dose response",significantly reduced action
CCOc1ccc(C(=O)Nc2ccc(-c3nn4c(C)nnc4s3)cc2)cc1 [PRT-1],Improvement in growth IC50 in PGIM relative to standard medium,P. falciparum [1],did not show measurable changes in efficacy in PGIM
same,Effect on residual PhTMA+ transport via the P. knowlesi channel,[5],inhibit
same,Effect on residual proline transport,[6],clearly reduced proline transport further
same,IC50,"[2]; PhTMA-Cl plus 100 nM ISG-21, read-out: K0.5 for block of residual PhTMA+ transport",44 nM
same,IC50,"[2]; PhTMA-Cl plus 2 μM TP-52, read-out: K0.5 for block of residual PhTMA+ transport",56 nM
same,IC50,"[2]; in combination with 200 μM furosemide, mean ± S.E.M., read-out: K0.5 for block of residual PhTMA+ uptake",190 ± 3 nM
same,IC50,"[3]; sorbitol without furosemide, mean ± S.E.M., read-out: K0.5 against sorbitol uptake (primary channel route)",590 ± 43 nM
O=C(COc1ccc2ccccc2c1)Nc1cccc(-c2nc3ncccc3o2)c1 [PRT-3],Improvement in growth IC50 in PGIM relative to standard medium,P. falciparum [1],did not show measurable changes in efficacy in PGIM
same,Effect on residual PhTMA+ transport via the P. knowlesi channel,[5],inhibit
